Structures can show the parent of a compound that is named as a salt. Where two headings read alike, the source gives them in different places.
What was measured:
[1] = test system: Mouse Collagen-Induced Arthritis (mCIA); assay: Therapeutic mouse collagen-induced arthritis (mCIA) model; type: in vivo, Male DBA/J mice; conditions: Mus musculus, mice, dosing day 34 through day 49; for ED80: read-out: Therapeutic mCIA (ED80 dose)
Description: Mouse Collagen-induced arthritis is a commonly used chronic, preclinical model of rheumatoid arthritis in which joint swelling and bone destruction occur following immunization with type II collagen. Reduction of disease incidence and severity has been shown previously to be predictive of disease-modification and signs and symptoms mitigation, respectively, in a clinical setting.
In the therapeutic mCIA model, induction of disease incidence and severity was synchronized via LPS stimulation. Male DBA/J mice were immunized with 100 ug of bovine type II collagen (bCII) on day 0. All mice received an intraperitoneal injection of 20 μg of LPS on day 28 and disease was allowed to develop through day 34. At day 34, all mice had disease (incidence=100%) with an average severity score of seven. Dosing of compounds was initiated in the therapeutic mode on day 34 and continued through day 49. Different treatments were compared by measuring the decrease in incidence (i.e., resolution of disease) and the decrease in severity of paw swelling over time.

[2] = biological target: T1, full-length glucocorticoid (GR) protein (Homo sapiens, UniProt P04150); assay: Glucocorticoid receptor fluorescence polarization ligand binding (GRFP) assay
T1 construct: purchased Invitrogen
T1 sequence (P04150 1-777): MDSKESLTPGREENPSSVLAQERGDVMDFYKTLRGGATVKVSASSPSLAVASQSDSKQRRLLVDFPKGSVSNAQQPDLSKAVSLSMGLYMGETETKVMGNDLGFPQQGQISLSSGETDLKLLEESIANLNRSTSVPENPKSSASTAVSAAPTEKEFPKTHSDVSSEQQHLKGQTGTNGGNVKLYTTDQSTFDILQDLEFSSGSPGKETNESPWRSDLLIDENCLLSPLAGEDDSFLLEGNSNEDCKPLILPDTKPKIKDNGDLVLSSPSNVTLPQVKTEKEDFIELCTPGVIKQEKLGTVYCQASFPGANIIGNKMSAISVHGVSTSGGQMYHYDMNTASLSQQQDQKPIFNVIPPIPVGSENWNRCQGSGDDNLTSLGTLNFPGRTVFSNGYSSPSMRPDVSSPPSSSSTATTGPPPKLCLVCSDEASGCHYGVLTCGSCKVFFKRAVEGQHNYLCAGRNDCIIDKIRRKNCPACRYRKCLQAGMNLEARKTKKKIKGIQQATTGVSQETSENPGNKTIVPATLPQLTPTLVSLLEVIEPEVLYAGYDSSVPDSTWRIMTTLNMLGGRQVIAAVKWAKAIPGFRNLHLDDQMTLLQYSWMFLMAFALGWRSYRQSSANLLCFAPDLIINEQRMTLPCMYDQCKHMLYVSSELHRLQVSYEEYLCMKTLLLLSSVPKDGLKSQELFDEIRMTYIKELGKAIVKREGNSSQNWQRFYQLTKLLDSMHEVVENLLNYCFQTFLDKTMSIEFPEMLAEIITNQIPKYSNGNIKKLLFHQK
Description: GRFP: Glucocorticoid Receptor Binding
The glucocorticoid receptor fluorescence polarization ligand binding (GRFP) assay is used to evaluate direct binding of testing compounds to full-length glucocorticoid (GR) protein. Reagents for this assay are purchased from Invitrogen in a test kit. A fluorescent labeled GR ligand is used as a fluorescent tracer and test compounds compete with the fluorescent tracer for GR binding. The change in polarization value in the presence of test compounds is due to binding of test compounds to (GR) and is used to determine IC50 and relative binding affinity of test compounds for GR.

Serum osteocalcin = Serum osteocalcin suppression, 28-day repeat dose mouse model; type: in vivo, Swiss Webster female mice; conditions: mice, oral gavage 28 days, serum osteocalcin
Experimental: (§1) The compounds were weighed and suspended in a vehicle of 0.5% methylcellulose/0.025% tween 20 (Sigma-Aldrich, St. Louis, Mo.). Compound suspensions were homogenized using a Polytron PT-3100 tissue homogenizer to create a very fine suspension and were then sonicated for 10 minutes using a water bath sonicator. Aliquots of each suspension were made for daily dosing at 0.2 ml/dose. Swiss Webster female mice, 10-12 weeks old, 28-29 grams, (Taconic, Germantown, N.Y.) were used in accordance with the guidelines of the Institutional Animal Care and Use Committee and in accordance with NIH guidelines on laboratory animal welfare. Mice were acclimated in the Pfizer animal facility for three to seven days prior to being utilized in a study. […] Each treatment group contained 5-10 mice. To establish a dosing regimen for the studies, a pilot pharmacodynamic time course experiment was conducted to quantify TNFα repression after a single ED80 dose.
(§2) Body weights were measured on the first and last day of each experiment. Blood samples were obtained after three weeks of dosing for a steady-state pharmacokinetic (PK) analysis. To assess compound effects on LPS-induced TNFα, all mice received an intraperitoneal injection of LPS (Salmonella typhosa, L-7895; Sigma-Aldrich, St. Louis) 2.5 hr after the last dose on day 28. Mice were sacrificed 90 minutes after LPS administration. Serum samples were quantified for osteocalcin and TNFα using the multiplex assays (Linco Research, Inc, St. Charles, Mo.; Luminex 100, Austin, Tex.). Samples were diluted 1:20 and the assay was run according to manufacturer's instructions. The osteocalcin standard was purchased separately (Biomedical Technologies Inc., Stoughton, Mass.). Mice were fasted for 4 hours before serum was collected for TNFα, and osteocalcin levels. For each experiment, outliers were detected by calculating the number of standard deviations from the mean of the group. If the value being examined was more than 2.5 standard deviations from the mean, it was excluded from the rest of the calculations.
(§3) The individual mouse percent inhibition values were fit to a four-parameter logistic model using the dose mean for each group.
(§4) ED50 and ED80 values were obtained for the various endpoints using a four-parameter logistic fit. For compounds which were tested multiple times, ED50 and ED80 values were obtained using four-parameter logistic fits of the combined data from multiple experiments.

LPS-induced serum TNFα = LPS-induced serum TNFα suppression, 28-day repeat dose mouse model; type: in vivo, Swiss Webster female mice; conditions: Mus musculus, 672 h, mice, oral gavage 28 days
Experimental: as §1, §2, §3, §4

[3] = Solubility and intrinsic dissolution; type: physicochemical; conditions: compared with Example 1
[4] = test system: IL-6 levels in Human A549 lung epithelial cells; assay: IL-1β-stimulated IL-6 in A549 cells; type: cell-based; conditions: additional results (footnote a)
Experimental: IL-6 IC50 and % Inhibition
Human A549 lung epithelial cells (American Type Culture Collection, Rockville, Md.) were cultured in Kaighn's F-12K medium with penicillin-streptomycin (10 U/mL) and 10% heat-inactivated fetal bovine serum (all from Invitrogen, Grand Island, N.Y.). A549 cells were plated at a density of 30,000 cells/well in 96-well plates and incubated overnight at 37° C. and with 5% CO2. The cells were serum-starved by replacing the growth medium with serum-free Kaighn's F-12K medium with penicillin-streptomycin (10 U/mL) and, again, incubating overnight at 37° C. and with 5% CO2. On the third day, the medium was replaced with fresh serum-free medium and the cells were incubated with or without compound (vehicle was DMSO at 0.1% maximum concentration) for approximately 1 hour and then stimulated with 1 ng/mL recombinant human IL-1β (R&D Systems, Minneapolis, Minn.) for 20 hours at 37° C. and with 5% CO2. Cell supernatants were collected for determination of IL-6 levels using MSD (Meso Scale Discovery, Gaithersburg, Md.) 96-well Single Spot plates as per the manufacturer's instructions. Plates were read with an MSD Sector Imager 6000. […] Vehicle was used to define the 0% inhibition control. Percent inhibition for each compound concentration, relative to these controls, was calculated using Excel (Microsoft, Redmond, Wash.). […]

Structure (SMILES) | ED80 [1] [mg/kg] | IC50 [2] [nM] | Osteocalcin Suppression (ED80 dose) (Serum osteocalcin) [mg/kg] | ED80 (LPS-induced serum TNFα) [mg/kg] | solubility and intrinsic dissolution [3] | IC50 ([2]; additional results (footnote a)) [nM] | IL-6 % Inhibition [4] [%] | ED50 ([1]; read-out: Therapeutic mCIA (ED50 dose)) [mg/kg]
Cc1cnc(NC(=O)c2ccc3c(c2)CC[C@@H]2C[C@@](O)(C(F)(F)F)CC[C@@]32Cc2ccccc2)c(C)n1 [Comparator B, (4βS,7R,8αR)-4β-benzyl-N-(3,5-dimethylpyrazin-2-yl)-7-hydroxy-7-(trifluoromethyl)-4β,5,6,7,8,8α,9,10-octahydrophenanthrene-2-carboxamide] | > 10 | 0.35 | >10 | 2.91 |  |  |  | 
Cc1ncc(NC(=O)c2ccc3c(c2)CC[C@@H]2C[C@@](O)(CCC(F)(F)F)CC[C@@]32Cc2ccccc2)c(C)n1 [Comparator J] | > 20 | 4.58 |  | 0.79 |  |  |  | 
Cc1ncccc1NC(=O)c1ccc2c(c1)CC[C@@H]1C[C@@](OC(=O)OCC(C)C)(C(F)(F)F)CC[C@@]21Cc1ccccc1 [Comparator K, (2R,4αS,10αR)-4-benzyl-7-((2-methylpyridin-3-yl)carbamoyl)-2-(trifluoromethyl)-1,2,3,4,4α,9,10,10α-octahydrophenanthren-2-yl isobutyl carbonate] |  | 895 |  |  |  |  |  | 
Cc1ncccc1NC(=O)c1ccc2c(c1)C=C[C@@H]1C[C@@](O)(C(F)(F)F)CC[C@@]21Cc1ccccc1 [Comparator I, (4βS,7R,8αR)-4β-benzyl-7-hydroxy-N-(2-methylpyridin-3-yl)-7-(trifluoromethyl)-4β,5,6,7,8,8α-hexahydrophenanthrene-2-carboxamide] | > 20 | 9.12 | >20 | 5.45 |  |  |  | 
Cc1ncccc1CNC(=O)c1ccc2c(c1)CC[C@@H]1C[C@@](O)(CCC(F)(F)F)CC[C@@]21Cc1ccccc1 [Comparator A, (4βS,7S,8αR)-4β-benzyl-7-hydroxy-N-((2-methylpyridin-3-yl)methyl)-7-(3,3,3-trifluoropropyl)-4β,5,6,7,8,8α,9,10-octahydrophenanthrene-2-carboxamide] |  | 7.1 |  |  |  |  |  | 
Cc1ncccc1NC(=O)c1ccc2c(c1)CC[C@@H]1C[C@@](OP(=O)(O)O)(C(F)(F)F)CC[C@@]21Cc1ccccc1 [Example 2, (2R,4αS,10αR)-4α-benzyl-7-((2-methylpyridin-3-yl)carbamoyl)-2-(trifluoromethyl)-1,2,3,4,4α,9,10,10α-octahydrophenanthren-2-yl dihydrogen phosphate] |  | 79 |  |  | enhanced solubility and intrinsic dissolution | 42 | 80 | 
Cc1ncccc1NC(=O)c1ccc2c(c1)[C@H](O)C[C@@H]1C[C@@](O)(C(F)(F)F)CC[C@@]21Cc1ccccc1 [Comparator F, (4βS,7R,8αR,10R)-4β-benzyl-7,10-dihydroxy-N-(2-methylpyridin-3-yl)-7-(trifluoromethyl)-4β,5,6,7,8,8α,9,10-octahydrophenanthrene-2-carboxamide] | > 10 | 1.9 | >10 | 5.67 |  |  |  | 
Cc1ncccc1NC(=O)c1ccc2c(c1)CC[C@@H]1C[C@@](O)(C(F)(F)F)CC[C@@]21Cc1ccccc1 [Example 1 HCL salt] |  | 1.31 |  |  |  |  |  | 
Cc1ncccc1NC(=O)c1ccc2c(c1)CC[C@@H]1C[C@@](O)(C(F)F)CC[C@@]21Cc1ccccc1 [Comparator H, (4βS,7R,8αR)-4-benzyl-7-(difluoromethyl)-7-hydroxy-N-(2-methylpyridin-3-yl)-4β,5,6,7,8,8α,9,10 octahydrophenanthrene-2-carboxamide] |  | 8.03 |  | 0.72 |  |  |  | 
Cc1ncccc1NC(=O)c1ccc2c(c1)C(=O)C[C@@H]1C[C@@](O)(C(F)(F)F)CC[C@@]21Cc1ccccc1 [Comparator E] | 2.6 | 1.18 | 1.71 | 1.18 |  |  |  | 
Cc1ncccc1NC(=O)c1ccc2c(c1)CC[C@@H]1C[C@@](O)(CCC(F)(F)F)CC[C@@]21Cc1ccccc1 [Comparator C, (4βS,7S,8αR)-4β-benzyl-7-hydroxy-N-(2-methylpyridin-3-yl)-7-(3,3,3-trifluoropropyl)-4β,5,6,7,8,8α,9,10-octahydrophenanthrene-2-carboxamide] | > 10 | 1.22 |  | 1.33 |  |  |  | 
Cc1ccncc1NC(=O)c1ccc2c(c1)CC[C@@H]1C[C@@](O)(C(F)(F)F)CC[C@@]21Cc1ccccc1 [Comparator D, (4βS,7R,8αR)-4β-benzyl-7-hydroxy-N-(4-methylpyridin-3-yl)-7-(trifluoromethyl)-4β,5,5,7,8,8α,9,10-octahydrophenanthrene-2-carboxamide] |  | 2.06 |  | > 20 |  |  |  | 
Cc1c(NC(=O)c2ccc3c(c2)CC[C@@H]2C[C@@](O)(C(F)(F)F)CC[C@@]32Cc2ccccc2)ccc[n+]1[O-] [Comparator G] | 3 |  | 7.27 | 3.33 |  |  |  | 0.6

— patent US7786097B2, “Tricyclic compounds, compositions and methods” (Pfizer Inc., priority 2007, dated 2010)
